Patent US20240174690A1, “ANNULATED 2-AMINO-3-CYANO THIOPHENES AND DERIVATIVES FOR THE TREATMENT OF CANCER” (BOEHRINGER INGELHEIM INTERNATIONAL GMBH, priority 2021, published 2024)

Experiments:
[1] = system: KRAS G12V-dependent Ba/F3 cells; assay: Ba/F3 proliferation assay, KRAS G12V; format: cell-based; conditions: Mus musculus, BaF3, 72 h, AlamarBlue;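 note: proliferation IC50 in KRAS G12V-dependent Ba/F3 cells read by AlamarBlue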
Outline: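 IL-3-independent Ba/F3 lines driven by transduced KRAS G12C, G12D or G12V, with puromycin withdrawn about ten days before testing. Viability after compound treatment measured by AlamarBlue fluorescence in duplicate, and values derived by curve fitting.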

[2] = Caco-2 assay (permeability PappAB, PappBA, efflux ratio); format: in vitro ADME; conditions: human, Caco-2, 10 μM test compound, pH 7.4; for Papp A→B at 90 min, 10 μM: apical to basolateral; for efflux ratio at 90 min, 10 μM: efflux ratio PappBA/PappAB, read-out: Caco ER
Outline: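 Bidirectional permeability (apical-to-basolateral and reverse) through polarized Caco-2 monolayers, BSA 0.25% on each side, 37 °C. Donor and receiver sampled at 0-90 min after 25-30 min preincubation, analysed by HPLC/MS/MS. Apparent permeabilities derived from transfer rate normalised to area and t=0 donor concentration; ER taken as PappBA over PappAB.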

SMILES	IC50 [1] [nM]	Papp A→B at 90 min, 10 μM [2] [×10⁻⁶ cm/s]	efflux ratio at 90 min, 10 μM [2]
C[C@H](O)Cn1ncc(-c2cc(O[C@@H](C)[C@@H]3CCCN3C)nc(-c3noc4c3CCC[C@@]43CCCc4sc(N)c(C#N)c43)n2)n1 [II-134]	28	4	8
C[C@H](Oc1cc(-n2cc3ccn([C@H]4CCOC4)c(=O)c3n2)nc(-c2noc3c2CCC[C@@]32CCCc3sc(N)c(C#N)c32)n1)[C@@H]1CCCN1C [II-202]	6	4.4	3.6
C[C@H](Oc1cc(-n2ccc(-c3cnccn3)n2)nc(-c2noc3c2CCC[C@@]32CCCc3sc(N)c(C#N)c32)n1)[C@@H]1CCCN1C [II-130]	6		1.4
C[C@H](Oc1cc(-n2ccc(-c3cn(C4CCOCC4)nn3)n2)nc(-c2noc3c2CCC[C@@]32CCCc3sc(N)c(C#N)c32)n1)[C@@H]1CCCN1C [II-210]	2		2.6
C[C@H](Oc1cc(-c2ccn([C@H]3CCOC3)n2)nc(-c2noc3c2CCC[C@@]32CCCc3sc(N)c(C#N)c32)n1)[C@@H]1CCCN1C [II-127]	13	5.9	4.1
C[C@@H]1CN(c2nc(-c3noc4c3CCC[C@@]43CCCc4sc(N)c(C#N)c43)nc(O[C@@H](C)[C@@H]3C[C@@H](F)CN3C)c2F)CC2(CC2)N1 [II-158]	108		0.4
C[C@H](Oc1cc(-n2cc3c(n2)CN(C)C3)nc(-c2noc3c2CCC[C@@]32CCCc3sc(N)c(C#N)c32)n1)[C@@H]1CCCN1C [II-174]	71		5.8
CO[C@H]1CCN(C)[C@@H]1[C@H](C)Oc1cc(N2CCN(C)C3(CC3)C2)nc(-c2noc3c2CCC[C@@]32CCCc3sc(N)c(C#N)c32)n1 [II-186]	321	21	0.8
C[C@@H]1CN(c2cc(O[C@@H](C)[C@@H]3CCCN3C)nc(-c3noc4c3CCC[C@@]43CCCc4sc(N)c(C#N)c43)n2)CCN1 [II-161]	971	0.4	47.6
C[C@H](Oc1cc(N2CCN(C)C3(CC3)C2)nc(-c2noc3c2CCC[C@@]32CCCc3sc(N)c(C#N)c32)n1)[C@@H]1C[C@@H](F)CN1C [II-149]	412		1.2
CC(C)NC(=O)Cc1ccn(-c2cc(O[C@@H](C)[C@@H]3CCCN3C)nc(-c3noc4c3CCC[C@@]43CCCc4sc(N)c(C#N)c43)n2)n1 [II-182]	3	7.1	5.5
COCCNC(=O)c1ccn(-c2cc(O[C@@H](C)[C@@H]3CCCN3C)nc(-c3noc4c3CCC[C@@]43CCCc4sc(N)c(C#N)c43)n2)n1 [II-195]	2	6.2	4.5
C[C@H](Oc1cc(N2CCNC[C@@]23CCOC3)nc(-c2onc3c2CCC[C@@]32CCCc3sc(N)c(C#N)c32)n1)[C@@H]1CCCN1C [I-13]	821	0.4	49.8
C[C@H](Oc1cc(N2CCN[C@@H](C)C2)nc(-c2noc3c2CCC[C@@]32CCCc3sc(N)c(C#N)c32)n1)[C@@H]1CCCN1C [II-162]	574	0.3	57.6
CCN1CCN(c2cc(O[C@@H](C)[C@@H]3C[C@@H](F)CN3C)nc(-c3noc4c3CCC[C@@]43CCCc4sc(N)c(C#N)c43)n2)CC12CC2 [II-185]	334		
CO[C@@H]1C[C@@H]([C@H](C)Oc2cc(-c3cnn(C)n3)nc(-c3onc4c3CCC[C@@]43CCCc4sc(N)c(C#N)c43)n2)N(C)C1 [I-17]	23		
[2H]C([2H])([2H])N1C[C@H](F)C[C@H]1[C@H](C)Oc1cc(N2CCN(C([2H])([2H])[2H])C3(CC3)C2)nc(-c2noc3c2CCC[C@@]32CCCc3sc(N)c(C#N)c32)n1 [II-207]	387		
C[C@H]1CNCCCN1c1cc(-n2ccnc2)nc(-c2noc3c2CCC[C@@]32CCCc3sc(N)c(C#N)c32)n1 [II-142]	1770		
CO[C@H]1CCN(C)[C@@H]1[C@H](C)Oc1cc(-n2ccc(CC(=O)NC(C)C)n2)nc(-c2noc3c2CCC[C@@]32CCCc3sc(N)c(C#N)c32)n1 [II-183]	3		
CO[C@H]1CCN(C)[C@@H]1[C@H](C)Oc1cc(-n2ccc(C(=O)N(C)C3COC3)n2)nc(-c2noc3c2CCC[C@@]32CCCc3sc(N)c(C#N)c32)n1 [II-199]	3		
CO[C@H]1CCN(C)[C@@H]1[C@H](C)Oc1cc(-n2ccc(C(=O)N[C@@H](C)c3ccccn3)n2)nc(-c2noc3c2CCC[C@@]32CCCc3sc(N)c(C#N)c32)n1 [II-196]	1		
